Activity calls are given as the source filed them. No cut-off for these calls is given here.
What was measured:
[1] = Antiinvasive activity against mouse 26-L5 cells at 1 ug/ml; type: functional
Mus musculus [2] = species on record: Mus musculus; assay: Cytotoxicity against mouse 26-L5 cells at 10 ug/ml; type: functional, cell-based
[3] = Antiinvasive activity against mouse 26-L5 cells; type: functional, cell-based
Mus musculus [4] = species on record: Mus musculus; assay: Antiinvasive activity against mouse 26-L5 cells assessed as inhibition of cell migration; type: functional, cell-based

SMILES	Activity [1]	Activity (Mus musculus [2])	IC50 [3]	Activity (Mus musculus [4])
O=C(OC[C@H]1O[C@H](O[C@H]2O[C@H](COC(=O)c3cccc(O)c3O)[C@@H](O)[C@H](O)[C@H]2O)[C@H](O)[C@@H](O)[C@@H]1O)c1cccc(O)c1O	40%	–	–	–
O=C(OC[C@H]1O[C@H](O[C@H]2O[C@H](COC(=O)c3ccccc3O)[C@@H](O)[C@H](O)[C@H]2O)[C@H](O)[C@@H](O)[C@@H]1O)c1ccccc1O	35%	–	–	–
O=C(OC[C@H]1O[C@H](O[C@H]2O[C@H](COC(=O)c3ccccc3)[C@@H](O)[C@H](O)[C@H]2O)[C@H](O)[C@@H](O)[C@@H]1O)c1ccccc1	51%	–	–	–
Cc1cc(O)cc(O)c1C(=O)OC[C@H]1O[C@H](O[C@H]2O[C@H](COC(=O)c3c(C)cc(O)cc3O)[C@@H](O)[C@H](O)[C@H]2O)[C@H](O)[C@@H](O)[C@@H]1O [BRARTEMICIN]	59%	Not toxic	390 nM	inactive

Source: ChEMBL document CHEMBL1151951, “Brartemicin, an inhibitor of tumor cell invasion from the actinomycete Nonomuraea sp” (J Nat Prod, 2009)
